From US20140221374A1, “RAF KINASE INHIBITORS” (Ruga Corporation, priority 2011, published 2014)

Key:
V600E-mutated B-RAF = V600E-mutated B-RAF (Homo sapiens, UniProt P15056, V600E); experiment: In vitro assay for inhibition of mutant B-RAF kinase (recombinant V600E-mutated B-RAF, MEK (K97R) substrate); format: biochemical; settings: 10 nM recombinant V600E-mutated B-RAF
Procedure: The ability of compounds described herein to inhibit RAF kinase activity were determined from biochemical kinase inhibition assays using recombinant RAF proteins as known in the art.
Solutions of varying concentrations of test compounds or vehicle were added to 10 nM recombinant V600E-mutated B-RAF proteins incubated in the presence of different concentrations of ATP and […] (K97R) as substrate, as previously described (Wilhelm, S. M., et al., Cancer Res., 64: 7099-7109, 2004; Mason, C. S., et al.; EMBO J. 18: 2137-2.148, 1999; Marais, R., et al., J. Biol. Chem., 272: 4378-4383, 1997). At least triplicate determinations for each individual test compound concentration were made and data plotted as mean±standard deviation relative to the control vehicle.

[1] = tested on: A375 cells (V600E activated B-RAF); experiment: In vitro tumor cell growth inhibition, MTT, 72 hours; format: cell-based; settings: Homo sapiens, A-375, 72 hours incubation
Procedure: Briefly, growth inhibition of cells containing V600E activated B-RAF (A375, Colo205) versus cell lines with wild-type B-RAF (A431) were measured under anchorage-dependent conditions using MTT (3-(4,5-dimethylthiazol-2-yl)-2,5-diphenyltetrazolium bromide), following 72 hours incubation with either compound or vehicle, as previously described (Haass, N. K., et al., Clinical Cancer Res., 14: 230-239, 2008): Cell lines are obtained from the American Type Tissue Culture Collection (Maryland, USA) and cultured in media containing heat-inactivated 10% fetal bovine serum. Cell cultures were also maintained in 10 U/mL, penicillin, 100 μg/mL streptomycin and 2 mM glutamine. At least triplicate determinations for each individual test compound concentration were made and data plotted as mean±standard deviation relative to the control vehicle.

Sequence of V600E-mutated B-RAF (P15056 whole entry V600E): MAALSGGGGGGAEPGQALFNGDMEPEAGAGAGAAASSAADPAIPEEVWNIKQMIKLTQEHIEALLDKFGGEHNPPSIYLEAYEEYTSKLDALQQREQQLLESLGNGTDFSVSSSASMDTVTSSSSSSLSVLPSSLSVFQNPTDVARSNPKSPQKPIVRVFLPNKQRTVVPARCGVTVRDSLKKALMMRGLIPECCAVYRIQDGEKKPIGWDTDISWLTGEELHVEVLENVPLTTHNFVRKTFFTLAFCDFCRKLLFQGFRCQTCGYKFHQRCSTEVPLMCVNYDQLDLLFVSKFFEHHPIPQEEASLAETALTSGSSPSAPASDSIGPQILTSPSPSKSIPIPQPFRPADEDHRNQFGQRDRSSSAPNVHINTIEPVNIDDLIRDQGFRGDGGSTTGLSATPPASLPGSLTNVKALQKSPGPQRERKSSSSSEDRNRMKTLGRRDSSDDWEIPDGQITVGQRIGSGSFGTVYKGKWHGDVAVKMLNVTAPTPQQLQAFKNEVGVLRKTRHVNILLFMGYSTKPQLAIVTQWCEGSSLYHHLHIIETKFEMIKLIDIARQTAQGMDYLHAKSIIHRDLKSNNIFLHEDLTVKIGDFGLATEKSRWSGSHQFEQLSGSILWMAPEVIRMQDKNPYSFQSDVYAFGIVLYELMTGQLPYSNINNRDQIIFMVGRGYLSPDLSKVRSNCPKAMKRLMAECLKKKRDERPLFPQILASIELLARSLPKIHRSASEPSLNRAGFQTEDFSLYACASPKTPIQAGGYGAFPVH

Structure (SMILES)	IC50 (V600E-mutated B-RAF)	IC50 [1]
Cc1nc(-c2ccncc2)c(-c2cccc(NC(=O)Nc3ccc(Cl)c(C(F)(F)F)c3)c2)s1 [Example 2, 1-(4-chloro-3-(trifluoromethyl)phenyl)-3-(3-(2-methyl-4-(pyridin-4-yl)thiazol-5-yl)phenyl)urea]	≤ 0.1 µM	–
Cc1nc(-c2ccncc2)c(-c2cccc(NC(=O)Nc3ccc(Cl)cc3)c2)s1 [Example 3, 1-(4-chlorophenyl)-3-(3-(2-methyl-4-(pyridin-4-yl)thiazol-5-yl)phenyl)urea]	≤ 0.1 µM	1 to 10 µM
Cc1nc(-c2ccncc2)c(-c2cccc(NC(=O)Nc3cc(F)ccc3F)c2)s1 [Example 5, 1-(2,5-difluorophenyl)-3-(3-(2-methyl-4-(pyridin-4-yl)thiazol-5-yl)phenyl)urea]	0.1 to 1 µM	–
Cc1nc(-c2ccncc2)c(-c2cccc(NC(=O)Nc3c(F)cccc3F)c2)s1 [Example 6, 1-(2,6-difluorophenyl)-3-(3-(2-methyl-4-(pyridin-4-yl)thiazol-5-yl)phenyl)urea]	0.1 to 1 µM	–
Cc1nc(-c2ccncc2)c(-c2cccc(NC(=O)Nc3ccc(C(F)(F)F)cc3)c2)s1 [Example 9, 1-(3-(2-methyl-4-(pyridin-4-yl)thiazol-5-yl)phenyl)-3-(4-(trifluoromethyl)phenyl)urea]	≤ 0.1 µM	0.1 to 1 µM
Cc1nc(-c2ccncc2)c(-c2ccc(F)c(NC(=O)Nc3cccc(Cl)c3)c2)s1 [Example 13, 1-(3-chlorophenyl)-3-(2-fluoro-5-(2-methyl-4-(pyridin-4-yl)thiazol-5-yl)phenyl)urea]	≤ 0.1 µM	1 to 10 µM
Cc1nc(-c2ccncc2)c(-c2ccc(F)c(NC(=O)Nc3ccc(C(F)(F)F)cc3)c2)s1 [Example 14, 1-(2-fluoro-5-(2-methyl-4-(pyridin-4-yl)thiazol-5-yl)phenyl)-3-(4-(trifluoromethyl)phenyl)urea]	≤ 0.1 µM	1 to 10 µM
Cc1nc(-c2ccncc2)c(-c2cccc(NC(=O)Nc3ccc(Cl)cc3)c2F)s1 [Example 18, 1-(4-chlorophenyl)-3-(2-fluoro-3-(2-methyl-4-(pyridin-4-yl)thiazol-5-yl)phenyl)urea]	0.1 to 1 µM	–
Cc1nc(-c2ccnc(N)c2)c(-c2cccc(NC(=O)Nc3ccc(Cl)cc3)c2F)s1 [Example 23, 1-(3-(4-(2-aminopyridin-4-yl)-2-methylthiazol-5-yl)-2-fluorophenyl)-3-(4-chlorophenyl)urea]	0.1 to 1 µM	–
Cc1ccc(NC(=O)Nc2cccc(-c3sc(C(C)(C)C)nc3-c3ccncc3)c2)cc1 [Example 27, 1-(3-(2-tert-butyl-4-(pyridin-4-yl)thiazol-5-yl)phenyl)-3-p-tolylurea]	0.1 to 1 µM	–
COCCNc1cc(-c2nc(C(C)(C)C)sc2-c2cccc(NC(=O)Nc3ccc(C)cc3)c2)ccn1 [Example 28, 1-(3-(2-tert-butyl-4-(2-(2-methoxyethylamino)pyridin-4-yl)thiazol-5-yl)phenyl)-3-p-tolylurea]	1 to 10 µM	–
Cc1ccc(NC(=O)Nc2cccc(-c3sc(C(C)(C)C)nc3-c3ccnc(NCCN(C)C)c3)c2)cc1 [Example 30, 1-(3-(2-tert-butyl-4-(2-(2-(dimethylamino)ethylamino)pyridin-4-yl)thiazol-5-yl)phenyl)-3-p-tolylurea]	≤ 0.1 µM	–
Nc1nc(-c2ccncc2)c(-c2cccc(NC(=O)Nc3ccc(Cl)cc3)c2F)s1 [Example 39, 1-(3-(2-amino-4-(pyridin-4-yl)thiazol-5-yl)-2-fluorophenyl)-3-(4-chlorophenyl)urea]	1 to 10 µM	–
Cc1nc(-c2ccncc2)c(-c2cccc(NS(=O)(=O)c3c(F)cccc3F)c2)s1 [Example 42, 2,6-difluoro-N-(3-(2-methyl-4-(pyridin-4-yl)thiazol-5-yl)phenyl)benzenesulfonamide]	0.1 to 1 µM	–
Cc1nc(-c2ccnc(N)c2)c(-c2cccc(NS(=O)(=O)c3c(F)cccc3F)c2)s1 [Example 43, N-(3-(4-(2-aminopyridin-4-yl)-2-methylthiazol-5-yl)phenyl)-2,6-difluorobenzenesulfonamide]	1 to 10 µM	–
Cc1ccc(CC(=O)Nc2cccc(-c3sc(C)nc3-c3ccnc(N)c3)c2)cc1 [Example 45, N-[3-(2-Methyl-4-(2-aminopyridin-4-yl)-thiazol-5-yl)-phenyl]-p-tolylacetamide]	0.1 to 1 µM	–
Cc1ccc(CC(=O)Nc2cccc(-c3sc(C(C)(C)C)nc3-c3ccncc3)c2)cc1 [Example 46, N-(3-(2-tert-butyl-4-(pyridin-4-yl)thiazol-5-yl)phenyl)-2-p-tolylacetamide]	1 to 10 µM	–

Now from value to compound:

IC50 (V600E-mutated B-RAF)	IC50 [1]	Structure (SMILES)
0.1 to 1 µM	–	Cc1nc(-c2ccncc2)c(-c2cccc(NC(=O)Nc3ccc(F)cc3)c2)s1 [Example 4, 1-(4-fluorophenyl)-3-(3-(2-methyl-4-(pyridin-4-yl)thiazol-5-yl)phenyl)urea]
≤ 0.1 µM	–	Cc1ccc(NC(=O)Nc2ccc(F)c(-c3sc(C)nc3-c3ccncc3)c2)cc1 [Example 8, 1-(4-fluoro-3-(2-methyl-4-(pyridin-4-yl)thiazol-5-yl)phenyl)-3-p-tolylurea]
≤ 0.1 µM	–	Cc1nc(-c2ccncc2)c(-c2ccc(F)c(NC(=O)Nc3ccc(Cl)c(Cl)c3)c2)s1 [Example 11, 1-(3,4-dichlorophenyl)-3-(2-fluoro-5-(2-methyl-4-(pyridin-4-yl)thiazol-5-yl)phenyl)urea]
≤ 0.1 µM	–	Cc1nc(-c2ccncc2)c(-c2ccc(F)c(NC(=O)Nc3ccc(Cl)cc3F)c2)s1 [Example 12, 1-(4-chloro-2-fluorophenyl)-3-(2-fluoro-5-(2-methyl-4-(pyridin-4-yl)thiazol-5-yl)phenyl)urea]
0.1 to 1 µM	1 to 10 µM	Cc1nc(-c2ccncc2)c(-c2cccc(NC(=O)Nc3ccc(C(F)(F)F)cc3)c2F)s1 [Example 15, 1-(2-fluoro-3-(2-methyl-4-(pyridin-4-yl)thiazol-5-yl)phenyl)-3-(4-(trifluoromethyl)phenyl)urea]
≤ 0.1 µM	> 10 µM	Cc1nc(-c2ccncc2)c(-c2ccc(F)c(NC(=O)Nc3cccc(C(F)(F)F)c3)c2)s1 [Example 16, 1-(2-fluoro-5-(2-methyl-4-(pyridin-4-yl)thiazol-5-yl)phenyl)-3-(3-(trifluoromethyl)phenyl)urea]
≤ 0.1 µM	> 10 µM	Cc1nc(-c2ccncc2)c(-c2cccc(NC(=O)Nc3ccc(S(C)(=O)=O)cc3)c2)s1 [Example 17, 1-(3-(2-methyl-4-(pyridin-4-yl)thiazol-5-yl)phenyl)-3-(4-(methylsulfonyl)phenyl)urea]
≤ 0.1 µM	–	Cc1ccc(NC(=S)Nc2cccc(-c3sc(C)nc3-c3ccncc3)c2)cc1 [Example 19, 1-(3-(2-methyl-4-(pyridin-4-yl)thiazol-5-yl)phenyl)-3-p-tolylthiourea]
≤ 0.1 µM	–	Cc1ccc(NC(=O)Nc2cccc(-c3sc(C(C)(C)C)nc3-c3ccnc(NCCO)c3)c2)cc1 [Example 29, 1-(3-(2-tert-butyl-4-(2-(2-hydroxyethylamino)pyridin-4-yl)thiazol-5-yl)phenyl)-3-p-tolylurea]
≤ 0.1 µM	–	Cc1ccc(NC(=O)Nc2cccc(-c3sc(C(C)(C)C)nc3-c3ccnc(NCCN4CCCC4)c3)c2)cc1 [Example 31, 1-(3-(2-tert-butyl-4-(2-(2-(pyrrolidin-1-yl)ethylamino)pyridin-4-yl)thiazol-5-yl)phenyl)-3-p-tolylurea]
≤ 0.1 µM	–	COC(=O)N[C@@H](C)CNc1cc(-c2nc(C(C)(C)C)sc2-c2cccc(NC(=O)Nc3ccc(C)cc3)c2)ccn1 [Example 32, (S)-methyl 1-(4-(2-tert-butyl-5-(3-(3-p-tolylureido)phenyl)thiazol-4-yl)pyridin-2-ylamino)propan-2-ylcarbamate]
≤ 0.1 µM	–	O=C(Nc1ccc(Cl)cc1)Nc1cc(-c2sc(NCCN3CCOCC3)nc2-c2ccncc2)ccc1F [Example 36, 1-(4-chlorophenyl)-3-(2-fluoro-5-(2-(2-morpholinoethylamino)-4-(pyridin-4-yl)thiazol-5-yl)phenyl)urea]
0.1 to 1 µM	–	Nc1nc(-c2ccncc2)c(-c2cccc(NC(=O)Nc3ccc(C(F)(F)F)cc3)c2F)s1 [Example 38, 1-(3-(2-amino-4-(pyridin-4-yl)thiazol-5-yl)-2-fluorophenyl)-3-(4-(trifluoromethyl)phenyl)urea]
≤ 0.1 µM	–	Nc1nc(-c2ccncc2)c(-c2ccc(F)c(NC(=O)Nc3ccc(Cl)cc3)c2)s1 [Example 40, 1-(5-(2-amino-4-(pyridin-4-yl)thiazol-5-yl)-2-fluorophenyl)-3-(4-chlorophenyl)urea]
0.1 to 1 µM	–	CC(C)(C)c1nc(-c2ccncc2)c(-c2cccc(NS(=O)(=O)c3c(F)cccc3F)c2)s1 [Example 44, N-(3-(2-tert-butyl-4-(pyridin-4-yl)thiazol-5-yl)phenyl)-2,6-difluorobenzenesulfonamide]
> 10 µM	–	CCn1cc(-c2cccc(NC(=O)Nc3ccc(S(=O)(=O)N4CCCC4)cc3)c2)c(-c2ccncc2)n1 [Example 58, 1-(3-(1-ethyl-3-(pyridin-4-yl)-1H-pyrazol-4-yl)phenyl)-3-(4-(pyrrolidin-1-ylsulfonyl)phenyl)urea]
